The values below come from patent US5608084A, “Lactones with antioxidising and hypolipidaemic activity useful in the therapy of the atherosclerosis” (priority 1994, dated 1997).

Experiment [1] deals with B-100 apolipoprotein. As to the kind of experiment: Fragmentation of B-100 apolipoprotein on SDS-PAGE (oxidative modification of LDL). The class given is biochemical, human. Conditions: 10 μM. The source says: (§1) The determination of the melting point has been carried out by means of a capillary melting point apparatus Electrothermal, without any correction. The I.R. spectrum has been obtained by means of a Perkin-Elmer rood. 963/G spectrophotometer generally, when not otherwise specified, preparing the specimen in potassium bromide and recording the spectrum between 4000 and 600 nm. […] The mass spectrum has been recorded by using a VG 7070E mass spectrometer, at a 70 eV ionization voltage and with a 6 Kvolt acceleration voltage. […] Chem., 43, 2923, (1978). […] The antioxidant activity has been evaluated through the capability of some lactones of formula I to prevent and/or delay the oxidative modification of the lipoproteins (LDL), caused by a chemical method by incubating native LDL with cupric ions, according to the method described by Steinbrecher U. P. in J. Biol. Chem., 262, 3603-3608, (1987). The evaluation of the oxidation degree of the LDL through the monitoring of the concentration of aldehydes derived from the degradation of the lipidic peroxides and the observation of the modifications of the B-100 apolipoprotein represent the used experimental approach. The antioxidant activity of the lactones has been expressed in terms of duration of the latency period that represents a parameter of the resistance to the oxidation of the LDL. The LDL have been isolated from the human plasma obtained from blood collected, in the presence of EDTA, from healty volunteers fasting from 8 hours according to the method described by Havel H. in J. Clin. Invest., 34, 1345-1353, (1955). The solution, dialyzed in Visking-Serva dialysis tubes at 4° C. for 72 hours in phosphate buffer (PBS) added with EDTA (0.24 mM), has been filtered through a membrane with 0.45μ porosity (Millex HV Filters) and the proteic concentration has been determined according to the method described by Lowry O. et al. in J. Biol. Chem., 193, 265-275, (1951). The solution has been diluted with PBS-EDTA at a concentration of 500 μg protein/ml and the obtained LDL have been incubated at 42° C. for 45 minutes in presence of the lactones solubilized in ethanol (1.7 μl/ml LDL). At the end of the incubation the solutions have been placed on ice for 45 minutes and dialyzed at 4° C. for 36 hours in PBS. The oxidation of the LDL has been carried out with 5 μM cupric sulfate at 37° C. and stopped at the experimental times by cooling at 4° C. and adding 0.24 mM of EDTA. The solutions of LDL have been kept at 4° C. and sheltered from light during the experimental procedure. […] 52, (1978).
The inhibition of the oxidative process has been evaluated also by means of the study of the fragmentation of the B-100 apolipoprotein through the electrophoretic analysis on polyacrylamide gel in presence of sodium dodecylsulfate (SDS-PAGE), according to the method described by Laemmli U. K., in Nature, 227, 680, (1970). The quantitative evaluation of the disappearance of the B-100 apolipoprotein has been carried out by densitometric unidimensional measurement of the absorbance at λ=633nm, on an electrophoretic plate 13.5 cm long, after colouring with Coomassie Brillant Blue. The reagents used for the preparation and coloration of the gels, the reference standard (SDS-PAGE standards Broad Range--Cat. no. 161-0317), the gradient former (gradient former Bio-Rad Mod. 385) and the electrophoretic cell (Protean II) are Bio-Rad products; the feeder is a LKB Pharmacia Mod. 2197, the densitometer is a Pharmacia LKB Mod. 2222-020 Ultrascan XL with integrators LKB 2220 and LKB 2190 GelScan Software Package.

In experiment [2] the test system is B-100 apolipoprotein. Briefly: Relative electrophoretic mobility of oxidized LDL on agarose gel (surface-negative charge of B-100 apolipoprotein). The class given is biochemical, human. The settings on record: 10 μM; for REM (%) at 180': 180 minutes; for REM (%) at 180' / REM (%) at 360': native LDL = 0, copper-oxidized LDL with ethanol at 360 minutes = 100; for REM (%) at 360': 360 minutes.
Source text: as §1
The inhibition of the oxidative process has also been qualitatively studied through the evaluation of the modification of the surface-negative charge of the B-100 apolipoprotein by electrophoretic analysis on agarose gel, by using the method described in the kit "Titan gel Multi-slot lipo-17 electrophoresis system" (Cat. no. 3095), manufactured by Helena Laboratories.
The Bio-Phoresis Horizontal Electrophoresis Cell Bio-Rad (Cat. no. 1702900) has been used as electrophoretic cell. The modification of the surface-negative charge of the B-100 apolipoprotein, caused by the oxidation of the LDL, produces an increase of the anionic electrophoretic mobility. Therefore the evaluation of the varying of this electrophoretic datum, mobility in presence of antioxidant substances, represents an indirect measure of the antioxidant capabilities of the claimed compounds as reported by Vanderyse L. et al. in Atherosclerosis, 97, 187-199, (1992). […] The migration of the native LDL is taken as a reference equal to 0 (no electrophoretic migration), while the migration of the band of the copper-oxidized LDL at the time of 360 minutes, only in presence of ethanol, is taken as reference equal to 100.

Consider `CCC1CCc2c(C)c(O)c(C)c(C)c2OCCCC(C)(C)C(=O)O1` (centres unmarked) [Example 6, 9-Ethyl-14-hydroxy-6,6,13,15,16-pentamethyl-2,8-dioxabicyclo[10.4.0]hexadec-12,14,16-trien-7-one], for which the “Area of the B-100 apolipoprotein peak” value in the experiment on B-100 apolipoprotein [1] (0 minutes) is 2.5 AU/mm; in the experiment with B-100 apolipoprotein [1] (60 minutes) it was 2.3 AU/mm; in the experiment on B-100 apolipoprotein [1] (90 minutes) it was 2.1 AU/mm; with B-100 apolipoprotein [1] (120 minutes) it was 2.0 AU/mm; in the experiment with B-100 apolipoprotein [1] (150 minutes), 1.7 AU/mm; in the experiment with B-100 apolipoprotein [1] (180 minutes), 1.6 AU/mm. Besides, the “Area of the B-100 apolipoprotein peak” value in the experiment with B-100 apolipoprotein [1] (360 minutes) was 1.6 AU/mm. For the same compound, in the experiment on B-100 apolipoprotein [2], the “lowering of electrophoretic mobility of LDL compared with probucol” value was “remarkably more effective than probucol”. In the experiment on B-100 apolipoprotein [2], the “REM (%) at 180'” value turned out to be 15%. In the experiment with B-100 apolipoprotein [2], the “REM (%) at 360'” value came to 30%.
For `Cc1c(C)c2c(c(C)c1O)CCC(C)OC(=O)C(C)(C)CCCO2` (centres unmarked) [Example 3, 6,6,9,13,15,16-Hexamethyl-14-hydroxy-2,8-dioxabicyclo[10.4.0]hexadec-12,14,16-trien-7-one], the “Area of the B-100 apolipoprotein peak” value was found to be 2.2 AU/mm with B-100 apolipoprotein [1] (0 minutes); 2.0 AU/mm in the experiment with B-100 apolipoprotein [1] (60 minutes); 1.9 AU/mm with B-100 apolipoprotein [1] (90 minutes); 1.6 AU/mm with B-100 apolipoprotein [1] (120 minutes); 1.5 AU/mm in the experiment with B-100 apolipoprotein [1] (150 minutes); 1.5 AU/mm in the experiment on B-100 apolipoprotein [1] (180 minutes). Also, the “Area of the B-100 apolipoprotein peak” value in the experiment on B-100 apolipoprotein [1] (360 minutes) was 1.5 AU/mm. The “lowering of electrophoretic mobility of LDL compared with probucol” value in the experiment on B-100 apolipoprotein [2] is on record as “remarkably more effective than probucol”. In the experiment on B-100 apolipoprotein [2], the “REM (%) at 180'” value is given as 15%. For the same compound, the “REM (%) at 360'” value with B-100 apolipoprotein [2] came out at 30%.
For the compound `CC(C)(Sc1cc(C(C)(C)C)c(O)c(C(C)(C)C)c1)Sc1cc(C(C)(C)C)c(O)c(C(C)(C)C)c1` [Probucol, reference compound], the “Area of the B-100 apolipoprotein peak” value in the experiment on B-100 apolipoprotein [1] (0 minutes) came to 2.7 AU/mm; in the experiment with B-100 apolipoprotein [1] (60 minutes) it was 1.8 AU/mm; in the experiment with B-100 apolipoprotein [1] (90 minutes) it was 1.6 AU/mm; with B-100 apolipoprotein [1] (120 minutes), 0.9 AU/mm; in the experiment with B-100 apolipoprotein [1] (150 minutes), 0.9 AU/mm; with B-100 apolipoprotein [1] (180 minutes), 0.6 AU/mm. In the experiment on B-100 apolipoprotein [1] (360 minutes), the “Area of the B-100 apolipoprotein peak” value amounted to 0.3 AU/mm. Also, in the experiment with B-100 apolipoprotein [2], the “REM (%) at 180'” value amounted to 40%. Also, in the experiment with B-100 apolipoprotein [2], the “REM (%) at 360'” value is listed as 100%.
